Experimental data as given in patent US20190184064A1, “Composition for Soft Tissue Augmentation Providing Protection from Infection” (priority 2015, published 2019).

Experiments:
[1] = test system: Stapylococcus aureus (SA 113); assay: Solution exposure of antimicrobial hyaluronic acid hydrogels to living cultures (SA 113); format: cell-based; conditions: 20 μl early phase culture in 980 μl formulation
Description: (§1) By way of Examples, the following evaluations were done to assess the performance of the antimicrobial hyaluronic acid gels. Solution exposure of the antimicrobial hyaluronic acid hydrogels immersed in early phase concentrations of 2 test microorganisms were conducted. Additionally, the physical properties of the hydrogels were assessed to determine their shear/thixotropic properties.
(§2) In this study, two strains of bacteria, namely Pseudomonas aeruginosa (PAO1) and Stapylococcus aureus (SA 113) were evaluated for total kill of each of the strains after 4 and 24 hours of exposure to the taurolidine-HA formulation. 20 μl of early phase culture of each strain was placed in 980 μl of each Hyaluronic Acid formulation. Samples of remaining bacteria concentrations were determined for the samples after 4 and 24 hours of exposure. Two controls (with and without HA), and HA gels with 3 different drug concentrations were evaluated. They were also evaluated against a known antimicrobial, gentamicin.

[2] = test system: Pseudomonas aeruginosa (PAO1); assay: Solution exposure of antimicrobial hyaluronic acid hydrogels to living cultures (PAO1); format: cell-based; conditions: 20 μl early phase culture in 980 μl formulation
Description: as §1, §2

gentamicin
SA113 (4 hr) remaining bacteria concentration ([1]; 4 hours of exposure): 3.77E+02
SA113 (24 hr) remaining bacteria concentration ([1]; 24 hours of exposure): 8.33E+00
PA01 (4 hr) remaining bacteria concentration ([2]; 4 hours of exposure): 0.00E+00
PA01 (24 hr) remaining bacteria concentration ([2]; 24 hours of exposure): 0.00E+00
